Values of other authors in US20220001014A1 (priority 2020, published 2022).
Where a name gives a salt, the structure may show the parent alone.

What was measured:
[1] = target: Neprilysin (Homo sapiens, UniProt P08473)
[2] = target: ACE (Homo sapiens, UniProt P12821)
[3] = target: T1, Bradykinin B2 (Homo sapiens, UniProt P30411); conditions: 18 μg/kg/h iv for 6 h; sodium-deplete normotensive and hypertensive subjects
T1 construct: host or cells: subjects in vivo (endogenous receptor)
T1 sequence (P30411 1-391): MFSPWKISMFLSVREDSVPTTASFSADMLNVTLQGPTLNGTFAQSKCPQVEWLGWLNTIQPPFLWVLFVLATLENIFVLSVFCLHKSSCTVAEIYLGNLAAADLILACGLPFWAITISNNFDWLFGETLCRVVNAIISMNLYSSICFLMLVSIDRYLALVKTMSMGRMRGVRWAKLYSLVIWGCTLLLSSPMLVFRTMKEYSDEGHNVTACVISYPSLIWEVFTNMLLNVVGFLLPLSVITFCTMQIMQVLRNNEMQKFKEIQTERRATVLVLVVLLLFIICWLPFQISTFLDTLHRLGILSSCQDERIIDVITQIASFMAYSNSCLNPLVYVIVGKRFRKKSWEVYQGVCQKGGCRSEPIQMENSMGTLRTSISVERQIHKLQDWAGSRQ

[4] = in vivo
[5] = tested on: SARS-CoV; conditions: lung epithelial cell lines
[6] = tested on: SARS-COV2; conditions: recent in vitro studies
[7] = tested on: SARS-CoV; conditions: mice; dosed at concentrations similar to the clinically achievable concentration in humans; reduced from 100%
[8] = injection; LPS-induced acute lung injury

Sequence of ACE (P12821 30-1306, species assumed): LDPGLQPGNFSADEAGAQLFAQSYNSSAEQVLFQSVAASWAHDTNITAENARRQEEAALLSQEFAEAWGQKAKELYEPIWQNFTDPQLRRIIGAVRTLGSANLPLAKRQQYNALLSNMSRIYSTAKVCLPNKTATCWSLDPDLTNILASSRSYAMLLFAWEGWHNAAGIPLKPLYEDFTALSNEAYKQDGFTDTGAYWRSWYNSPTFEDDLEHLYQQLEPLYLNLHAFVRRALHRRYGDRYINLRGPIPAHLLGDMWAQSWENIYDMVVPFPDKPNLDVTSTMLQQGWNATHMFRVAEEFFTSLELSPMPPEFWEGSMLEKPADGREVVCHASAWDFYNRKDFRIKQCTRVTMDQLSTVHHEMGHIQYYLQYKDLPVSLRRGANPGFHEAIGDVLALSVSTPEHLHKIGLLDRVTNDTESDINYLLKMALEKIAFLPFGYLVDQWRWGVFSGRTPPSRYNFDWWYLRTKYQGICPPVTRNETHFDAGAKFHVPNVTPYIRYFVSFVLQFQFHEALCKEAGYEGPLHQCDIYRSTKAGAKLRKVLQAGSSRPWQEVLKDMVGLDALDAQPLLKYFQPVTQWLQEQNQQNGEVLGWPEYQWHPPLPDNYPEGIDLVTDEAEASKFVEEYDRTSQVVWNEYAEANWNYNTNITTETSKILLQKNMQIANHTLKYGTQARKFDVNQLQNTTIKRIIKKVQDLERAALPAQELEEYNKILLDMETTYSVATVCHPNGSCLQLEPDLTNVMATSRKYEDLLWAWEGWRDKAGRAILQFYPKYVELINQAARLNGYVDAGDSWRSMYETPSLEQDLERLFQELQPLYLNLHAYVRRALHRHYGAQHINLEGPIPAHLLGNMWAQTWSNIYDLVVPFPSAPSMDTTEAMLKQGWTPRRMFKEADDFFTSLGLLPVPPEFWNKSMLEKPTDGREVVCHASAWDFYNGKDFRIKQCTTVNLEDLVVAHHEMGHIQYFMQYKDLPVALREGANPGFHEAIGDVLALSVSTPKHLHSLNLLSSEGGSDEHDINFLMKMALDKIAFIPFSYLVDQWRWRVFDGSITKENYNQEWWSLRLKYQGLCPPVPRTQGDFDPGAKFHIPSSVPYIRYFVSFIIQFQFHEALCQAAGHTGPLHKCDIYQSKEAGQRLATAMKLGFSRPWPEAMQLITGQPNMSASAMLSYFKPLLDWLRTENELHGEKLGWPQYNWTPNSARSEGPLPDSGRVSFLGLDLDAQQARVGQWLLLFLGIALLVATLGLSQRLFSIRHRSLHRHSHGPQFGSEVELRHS
Sequence of Neprilysin (P08473 whole entry, species assumed): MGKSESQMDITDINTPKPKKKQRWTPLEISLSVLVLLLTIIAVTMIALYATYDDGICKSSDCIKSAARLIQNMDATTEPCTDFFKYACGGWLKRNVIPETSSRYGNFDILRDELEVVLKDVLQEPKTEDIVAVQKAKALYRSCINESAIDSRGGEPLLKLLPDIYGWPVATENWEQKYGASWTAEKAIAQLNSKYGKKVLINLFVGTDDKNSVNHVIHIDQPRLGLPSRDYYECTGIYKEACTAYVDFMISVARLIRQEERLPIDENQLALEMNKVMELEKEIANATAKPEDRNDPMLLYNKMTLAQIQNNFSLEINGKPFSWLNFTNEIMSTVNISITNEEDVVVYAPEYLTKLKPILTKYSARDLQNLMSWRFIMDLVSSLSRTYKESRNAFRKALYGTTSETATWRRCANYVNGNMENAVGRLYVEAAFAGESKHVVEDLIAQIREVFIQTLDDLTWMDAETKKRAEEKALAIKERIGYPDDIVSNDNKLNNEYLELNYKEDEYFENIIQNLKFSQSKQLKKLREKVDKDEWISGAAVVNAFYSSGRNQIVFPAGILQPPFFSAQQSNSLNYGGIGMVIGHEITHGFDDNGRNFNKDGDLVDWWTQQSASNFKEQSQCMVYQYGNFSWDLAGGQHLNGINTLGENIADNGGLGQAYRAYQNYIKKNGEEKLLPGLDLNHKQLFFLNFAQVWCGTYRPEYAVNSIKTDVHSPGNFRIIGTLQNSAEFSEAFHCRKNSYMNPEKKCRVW

## CC(=O)SC[C@@H](Cc1ccccc1)C(=O)NCC(=O)OCc1ccccc1 [Ecadotril]
[1]
  Neprilysin inhibition: 99%
[2]
  ACE inhibition: 23%

## NC(N)=NCCC[C@@H](N)C(=O)N[C@@H](CCCN=C(N)N)C(=O)N1CCC[C@H]1C(=O)N1C[C@H](O)C[C@H]1C(=O)NCC(=O)N[C@@H](Cc1cccs1)C(=O)N[C@@H](CO)C(=O)N1Cc2ccccc2C[C@@H]1C(=O)N1[C@H](C(=O)N[C@@H](CCCN=C(N)N)C(=O)O)C[C@@H]2CCCC[C@@H]21 [Icatibant]
[3]
  attenuation of hypotensive effects of acute or chronic valsartan: did not attenuate

## NCCCC[C@H](N[C@@H](CCc1ccccc1)C(=O)O)C(=O)N1CCC[C@H]1C(=O)O [Lisinopril]
[2]
  ACE inhibition: 83%

## O=C(N[C@H]1CCS[C@H]2CCC[C@@H](C(=O)O)N2C1=O)[C@@H](S)Cc1ccccc1 [Omapatrilat]
[1]
  Neprilysin inhibition: 53%
[2]
  ACE inhibition: > 90%

## Cn1c(=O)cc(N2CCC[C@@H](N)C2)n(Cc2ccccc2C#N)c1=O [alogliptin]
[4]
  joint pains: can cause severe joint pains

## CN(C)C(=O)COC(=O)Cc1ccc(OC(=O)c2ccc(NC(=N)N)cc2)cc1 [camostat mesylate, Camostat mesylate]
[5]
  entry of viruses into host cells: left some residual entry of viruses
[6]
  inhibition of SARS-COV2 viral entry: did not fully inhibit
[7]
  mortality following SARS-CoV infection: 30-35%

## CC#CCn1c(N2CCC[C@@H](N)C2)nc2c1c(=O)n(Cc1nc(C)c3ccccc3n1)c(=O)n2C [linagliptin]
[4]
  joint pains: can cause severe joint pains

## N[C@@H](CC(=O)N1CCn2c(nnc2C(F)(F)F)C1)Cc1cc(F)c(F)cc1F [sitagliptin]
[4]
  joint pains: can cause severe joint pains

## rhACE2: rhACE2, injected in LPS-induced acute lung injury
[8]
  lung injury and inflammation: improved lung injury and inflammation
